Measured values as given in patent publication US20210253572A1, “IMIDAZO[1,2-B]PYRIDAZINES AS TRK INHIBITORS” (BenevolentAl Bio Limited, priority 2018, published 2021).

Columns and labels:
Assay type in all cases: biochemical
[1] = molecular target: T1, TrkB (Homo sapiens, UniProt Q16620); experiment: HTRF KinEASE kinase assay, recombinant Human TRK enzyme, TrkB (NTRK2); details: NTRK2 1 nM, read-out: TrkB Enz
T1 construct: purchased Invitrogen
Procedure: (§1) A suitable assay for determining the Trk inhibition activity of a compound is detailed herein below.
(§2) To determine the IC50 of small molecule compounds for the Human TRK receptors, HTRF® KinEASE™ kinase kits from Cisbio were used. Assays were carried out in low volume, black 384-well plates.
(§3) Recombinant Human TRK enzymes (Invitrogen) were incubated in the presence or absence of the compound (11-point dose response with FAC as 10 μM) for 30 minutes at 23° C. Kinase reaction was started by addition of ATP to a mixture containing the enzyme (NTRK1-4 nM, NTRK2-1 nM, NTRK3-10 nM) and substrate (1 μM). Kinase reaction was allowed to carry on for 10 to 45 minutes at 23° C. after which it was stopped by addition of the detection mix (supplied by vendor) containing EDTA, TK-Ab-labelled with Eu^3+-cryptate (1:200 dilutions) and Streptavidin-XL665 (250 nM). Assay plates were incubated in this detection mix for 60 minutes at 23° C. The resulting TR-FRET signal, calculated as the fluorescence ratio at 665/620 nm, was read on an Envision and was proportional to the level of phosphorylation of the peptide in the presence or absence of the compound. The uniformity of the plates were assured with Z′ value [1−{3*(SDHPE+SDZPE)/(ZPE−HPE)}]. The percent (%) effect i.e. Inhibition of compound was calculated in comparison to the signal in the positive (HPE) and negative control (ZPE) wells within each assay plate. The endpoint value % Inhibition for the Standard compound was evaluated in each experiment as a quality control measure. IC50 was determined by plotting compound inhibition at respective dose in Graphpad prism5 using four parameter logistic curve fit.

[2] = molecular target: T2, TrkC (Homo sapiens, UniProt Q16288); experiment: HTRF KinEASE kinase assay, recombinant Human TRK enzyme, TrkC (NTRK3); details: NTRK3 10 nM, read-out: TrkC Enz
T2 construct: purchased Invitrogen
Procedure: as §1, §2, §3

[3] = molecular target: T3, TrkA (Homo sapiens, UniProt P04629); experiment: HTRF KinEASE kinase assay, recombinant Human TRK enzyme, TrkA (NTRK1); details: NTRK1 4 nM, read-out: TrkA Enz
T3 construct: purchased Invitrogen
Procedure: as §1, §2, §3

T1 sequence (Q16620 32-822): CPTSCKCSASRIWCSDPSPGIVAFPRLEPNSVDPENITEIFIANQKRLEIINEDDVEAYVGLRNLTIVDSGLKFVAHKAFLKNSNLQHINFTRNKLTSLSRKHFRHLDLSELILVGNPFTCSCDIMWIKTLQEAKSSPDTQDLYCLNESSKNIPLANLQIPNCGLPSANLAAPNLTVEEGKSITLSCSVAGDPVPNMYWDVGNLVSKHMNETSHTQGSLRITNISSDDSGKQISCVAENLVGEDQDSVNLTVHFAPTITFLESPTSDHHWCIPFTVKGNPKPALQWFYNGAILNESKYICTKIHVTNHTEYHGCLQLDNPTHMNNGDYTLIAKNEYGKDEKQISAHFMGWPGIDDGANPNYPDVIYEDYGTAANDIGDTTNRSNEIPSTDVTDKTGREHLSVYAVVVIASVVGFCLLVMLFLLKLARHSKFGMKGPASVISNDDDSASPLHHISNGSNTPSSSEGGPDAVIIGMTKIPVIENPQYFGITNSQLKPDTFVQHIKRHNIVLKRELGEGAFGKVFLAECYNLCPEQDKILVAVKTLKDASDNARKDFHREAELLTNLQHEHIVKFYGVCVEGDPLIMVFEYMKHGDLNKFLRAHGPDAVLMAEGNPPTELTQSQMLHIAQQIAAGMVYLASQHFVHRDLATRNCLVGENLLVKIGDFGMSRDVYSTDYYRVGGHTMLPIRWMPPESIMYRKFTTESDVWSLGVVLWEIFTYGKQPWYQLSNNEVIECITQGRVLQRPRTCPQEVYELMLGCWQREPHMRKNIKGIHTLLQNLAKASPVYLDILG
T2 sequence (Q16288 32-839): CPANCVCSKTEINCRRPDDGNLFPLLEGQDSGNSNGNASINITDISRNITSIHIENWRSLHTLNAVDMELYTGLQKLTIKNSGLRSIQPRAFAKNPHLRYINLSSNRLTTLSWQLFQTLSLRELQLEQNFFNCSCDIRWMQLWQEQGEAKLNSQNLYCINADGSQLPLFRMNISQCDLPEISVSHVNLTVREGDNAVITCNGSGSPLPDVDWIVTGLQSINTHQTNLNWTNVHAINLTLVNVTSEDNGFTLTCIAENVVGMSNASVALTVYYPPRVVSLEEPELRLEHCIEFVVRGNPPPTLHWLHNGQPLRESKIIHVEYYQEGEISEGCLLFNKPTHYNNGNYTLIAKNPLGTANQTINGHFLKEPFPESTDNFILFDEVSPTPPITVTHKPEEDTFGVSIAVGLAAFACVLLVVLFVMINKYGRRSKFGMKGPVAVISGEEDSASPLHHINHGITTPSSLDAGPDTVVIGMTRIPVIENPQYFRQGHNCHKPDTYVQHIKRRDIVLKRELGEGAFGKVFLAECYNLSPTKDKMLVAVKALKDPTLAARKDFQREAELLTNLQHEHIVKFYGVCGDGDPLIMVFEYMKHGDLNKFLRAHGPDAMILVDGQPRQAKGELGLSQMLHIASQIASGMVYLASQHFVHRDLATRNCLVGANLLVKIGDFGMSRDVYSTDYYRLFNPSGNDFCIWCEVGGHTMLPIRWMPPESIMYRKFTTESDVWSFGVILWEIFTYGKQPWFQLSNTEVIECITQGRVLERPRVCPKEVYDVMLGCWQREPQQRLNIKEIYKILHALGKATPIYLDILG
T3 sequence (P04629 33-796): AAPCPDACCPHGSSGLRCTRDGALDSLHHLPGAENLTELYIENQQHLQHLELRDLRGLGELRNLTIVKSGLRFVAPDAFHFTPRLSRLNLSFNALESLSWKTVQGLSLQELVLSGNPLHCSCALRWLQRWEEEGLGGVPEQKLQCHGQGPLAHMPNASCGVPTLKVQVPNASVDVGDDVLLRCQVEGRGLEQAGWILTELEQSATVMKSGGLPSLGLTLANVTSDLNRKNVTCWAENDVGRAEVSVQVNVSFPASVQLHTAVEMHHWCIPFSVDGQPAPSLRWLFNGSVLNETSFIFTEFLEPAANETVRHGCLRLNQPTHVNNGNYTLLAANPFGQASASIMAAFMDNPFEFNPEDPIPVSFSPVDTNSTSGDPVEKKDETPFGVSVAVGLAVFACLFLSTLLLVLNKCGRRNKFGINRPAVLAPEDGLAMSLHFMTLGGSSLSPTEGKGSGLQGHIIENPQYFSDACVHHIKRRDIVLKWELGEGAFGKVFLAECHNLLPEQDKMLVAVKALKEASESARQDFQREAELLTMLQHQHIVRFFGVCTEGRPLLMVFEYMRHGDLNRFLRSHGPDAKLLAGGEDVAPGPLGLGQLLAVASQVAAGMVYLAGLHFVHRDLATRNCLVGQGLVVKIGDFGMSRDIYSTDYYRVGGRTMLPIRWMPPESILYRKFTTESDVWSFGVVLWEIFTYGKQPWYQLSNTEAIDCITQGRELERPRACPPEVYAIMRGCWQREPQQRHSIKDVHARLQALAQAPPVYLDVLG

Row | IC50 [1] | IC50 [2] | IC50 [3] | Structure (SMILES)
1 | 2.53 nM | 2.01 nM | 1.7 nM | CCOC(=O)c1cccc(CN2CC[C@H](NC(=O)c3cnc4ccc(N5C[C@@H](F)C[C@@H]5c5cc(F)ccc5SC)nn34)C2)c1 [Example 13, Ethyl 3-{[(3S)-3-{6-[(2R,4S)-4-fluoro-2-[5-fluoro-2-(methylsulfanyl)phenyl]pyrrolidin-1-yl]imidazo[1,2-b]pyridazine-3-amido}pyrrolidin-1-yl]methyl}benzoate]
2 | 23.6 nM | 17.3 nM | 6.9 nM | CSc1cc(F)cc([C@H]2C[C@H](F)CN2c2ccc3ncc(C(=O)N[C@@H]4COCCN(Cc5ccc(F)c(O)c5)C4)n3n2)c1 (single isomer, unassigned) [Example 24]
